Measurements from patent publication US20050233457A1, “Recombining viral vectors for the tetracycline-regulated expression of genes” (priority 2002, published 2005).

Tested on: HT29 colon carcinoma cells
Test: Luciferase expression in lysates of adenovirally infected HT29 cells
Format: cell-based, human
Conditions: HT29, Ad.3r-luc m.o.i. 30, 24 hours
Method: […], Colo205, SkCO-1, AsPc-1, HepG2, MCF-7, BT-20, HeLa, RT4 and U266 cells were seeded in six and twelve (U266) vial-plates at a concentration of 1×10^6 cells per cavity for 6 hours before transfection. The larger HeLa, RT-4 and 293 cells were seeded in a concentration of 5×10^5 cells per vial. U266 myeloma cells were allowed to grow in suspension culture and infected. Purified viral particles were diluted in media without supplementation and the cells were exposed to 500 μl of the suitable virus dilution per vial for 1 hour. After removal of the infectious supernatant, complete media which had been supplemented with different concentrations of doxycycline, were added. The media were changed every 24 hours.
24 hours after infection with Ad.CMV-luc or Ad.3r-luc, the cells were harvested with 150 μl of cell culture lysis reagent according to the manufacturer's (Promega) instructions. The luciferase activity in 20 μl of cell lysate was measured using a Bertold LB9507 luminometer and luciferase assay substrate (Promega). […] The protein concentration was determined using the DC protein assay kit (BioRad, Hercules, Calif.).
Human colon carcinoma cells HT29 are extremely receptive for adenoviral transduction, as has been shown previously (A. Block et al. Cancer Gene Therapy 7 (2000) 438-445). […] The luciferase activity was determined in cell lysates in relation to the dissolved cell protein. […]

Which “doxycycline concentration leading to a significant reduction in gene expression” value does the source give for C[C@H]1c2cccc(O)c2C(=O)C2=C(O)[C@]3(O)C(=O)C(C(N)=O)=C(O)[C@@H](N(C)C)[C@@H]3[C@@H](O)[C@@H]21 [doxycycline] here?
The value was 100 pg/mL.
